Test results from US20110159113A1, “HYPERBRANCHED POLYESTER AND A METHOD OF SYNTHESIZING A HYPERBRANCHED POLYESTER” (priority 2011, published 2011).

Tested on: tumor cells C26
Assay: MTT assay, in vitro cytotoxicity, 72 h incubation
Assay type: cell-based
Method: In vitro cytotoxicity of CDDP, P(CA8-G)-CDDP and P(CA12-G)-CDDP was evaluated by using a MTT assay. To measure cytotoxicity, tumor cells C26 were separately incubated in a plate with different concentrations of CDDP, P(CA8-G)-CDDP and P(CA12-G)-CDDP. The duration of incubation was 72 h. […] With respect to FIG. 13, it is concluded that, loading of cisplatin into the P(CA8-G)-CDDP and P(CA12-G)-CDDP influences its cytotoxicity. […] According to the MTT assay measurements, IC50 doses of free cisplatin, P(CA8-G)-CDDP and P(CA12-G)-CDDP were calculated. IC50 dose is the concentrations of active ingredients necessary to inhibit the cell growth by 50%.
P(CA12-G)-CDDP was synthesized in the same manner as explained above. P(CA8-G)-CDDP and P(CA12-G)-CDDP were used for MTT assay measurements.

N.N.[Cl][Pt][Cl] [CDDP, cis-dichlorodiammineplatinum (II)]
IC50: 37.9 µg/mL
